Literature values, collected in publication PMC3694611 (Journal of natural products, 2012).

Legend:
Plasmodium falciparum = conditions: in words; ref [1a]
[1] = in words; ref [ii]

Row | Substance | activity against the malarial parasite Plasmodium falciparum (Plasmodium falciparum) | anticancer potency [1]
1 | Gallinamide A | moderately active | –
2 | dolastatin-15 | – | exceedingly potent
